Assays:
[1] = test system: aOBBs (anisotropic organ building blocks of hiPSC-CMs and hNDFs); experiment: aOBB contraction (force generation on micro-pillars) with ROCK inhibitor and after washing; format: cell-based, human; conditions: FIG. 8E, n=10 aOBBs from 1 passage
Source text: FIGS. 8A-8G depict scalable generation of cellularly aligned, anisotropic organ building blocks (OBBs). […] Scale bars, top: 200 μm, bottom: 20 μm. (FIG. 8B) Fourier analysis used to quantify the high degree of sarcomere alignment. (FIG. 8C) Without capped ends, aOBBs slide off micro-pillars overtime. (FIG. 8D) aOBB force generation on Day 3. n=5 separate passages. […] Scale bars, 1000 μm. FIGS. 14A-14C depict contractile force measurements for aligned cardiac tissues. Force measurements are quantified using Euler-Bernoulli beam theory. Image and schematic representations of (FIG. 14A) micro- and (FIG. 14B) macro-pillars were quantified using an Instron. Micro- and macro-pillar dimensions were measured from high resolution images recorded across 20 independent samples. (FIG. 14C) The material and geometric information were combined to numerically estimate cantilever spring constants and translate pillar displacement to force generation. Based upon the total concentration of iPSC-CMs, an appropriate volume of 1× rat tail collagen I (Corning) solution was prepared on ice. An appropriate volume of collagen I is calculated based upon a desired final concentration of 1.25 mg/mL. Then y/100 mL of 250 mM CaCl2, ˜x/40 mL of 1 N NaOH, and y mL of collagen I are added, in order, to the basal DMEM high glucose media. […]

[2] = test system: aOBBs (anisotropic organ building blocks of hiPSC-CMs and hNDFs); experiment: aOBB compaction upon harvest from micropillar array after pre-incubation in ROCK inhibitor; format: cell-based, human; conditions: FIGS. 8F, 8G; pre-incubation of aOBBs (50 uM, 1 hour)
Experimental: FIGS. 8A-8G depict scalable generation of cellularly aligned, anisotropic organ building blocks (OBBs). […] Scale bars, top: 200 μm, bottom: 20 μm. (FIG. 8B) Fourier analysis used to quantify the high degree of sarcomere alignment. (FIG. 8C) Without capped ends, aOBBs slide off micro-pillars overtime. (FIG. 8D) aOBB force generation on Day 3. n=5 separate passages. […] Scale bars, 1000 μm. In order to prevent aOBB compaction upon removal from pillars, the aOBBs may be pre-incubated in 50 uM rock inhibitor (Y-27632) for a period of time, such as, e.g., 1 hour. Second, 1 mL of 10% gelbrin (w/v) solution is prepared in DMEM/F12 (Gibco). Third, DMEM High Glucose+10% FBS is supplemented with 50 μM […] (Biogems). Fourth, 100 U/mL thrombin solution is prepared in DMEM High Glucose+10% FBS. All ECM and media solutions were held at 37° C. using a hotplate. […] After 1 h, the aOBBs were harvested manually using a P1000 pipette with wide-bore tips. The wide-bore tips were treated with 3% bovine serum albumin (BSA) to prevent adsorption of the aOBBs. aOBBs were collected three wells at a time and transferred into a single 50 mL tube. Upon collection, the aOBBs were allowed to settle under gravity for 5 min. After the supernatant was aspirated, the volume (x mL) of compacted aOBBs was estimated. We subsequently wash compacted aOBBs in 3× volume of gelbrin bioink. […]

SMILES: C[C@@H](N)[C@H]1CC[C@H](C(=O)Nc2ccncc2)CC1 [Y-27632]
- recovery of aOBB contractile function ([1]; after washing out ROCK inhibitor): Full contractile function is recovered after washing
- effect on aOBB contraction ([1]; during exposure to ROCK inhibitor): temporarily blunts aOBB contraction
- effect on aOBB compaction upon harvest [2]: blunts compaction upon harvest from micropillar array
